# According to patent US4640799A, “Carbapenem antibiotics” (priority 1985, dated 1987):
# Tested on: S. aureus A-9606
# Assay: Protective effect in the intramuscular treatment of infected mice
# Type: in vivo
# Settings: Staphylococcus aureus, A9606, im, i.m. 0 and 2 h postinfection, i.p. challenge ~9 × 10^7 (Ex. 4 and 5), read-out: PD50/treatment
# Experimental: Treatment Schedule: *For compound of Ex. 2, mice were infected i.p. with
# A20481. For compounds of Ex. 4 and 5, mice were infected i.p. with
# (A9843A). Mice were treated i.m. with drugs 0 and 2 h postinfection.
row,Compound,ED50
1,"C[C@@H](O)[C@H]1C(=O)N2C(C(=O)[O-])=C(SCC[N+]3(C)CC[S+]([O-])CC3)C[C@H]12 (single isomer, unassigned) [Ex. 5 comp. A]",1.2 mg/kg
2,"C[C@@H](O)[C@H]1C(=O)N2C(C(=O)[O-])=C(SCC[N+]3(C)CCSCC3)C[C@H]12 [Ex. 2, 3-[2-(N-methyl-thiomorpholinium)ethylthio]-6α-[1'-(R)-hydroxyethyl]-7-oxo-1-azabicyclo[3.2.0]-hept-2-ene-2-carboxylate]",0.72 mg/kg
3,"C[C@@H](O)[C@H]1C(=O)N2C(C(=O)[O-])=C(SCC[N+]3(C)CCN(C)CC3)C[C@H]12 [Ex. 4, (5R,6S)3-[2-(1,4-dimethyl-1-piperazinium)ethylthio]-6-[1-(R)-hydroxyethyl]-7-oxo-1-azabicyclo[3.2.0]hept-2-ene-2-carboxylate]",1.6 mg/kg
